Results reported in publication PMC7985170, “Marine Peptide-N6NH2 and Its Derivative-GUON6NH2 Have Potent Antimicrobial Activity Against Intracellular Edwardsiella tarda in vitro and in vivo” (Frontiers in Microbiology, 2021).
Converted amounts (≈) assume the structure as drawn. Where a SMILES comes first, the peptide text is derived from it. Bridges are numbered along the chain shown (N, C = ends). The star is where a group is joined. Orn(α-tetramethylguanidino) = CN(C)C(=N[C@@H](CCCN)C(=O)*)N(C)C

Assays:
[1] = test system: E. tarda; test: Post-antibiotic effect (PAE); type: cell-based, Edwardsiella tarda; conditions: 4× MIC
[2] = test system: inner membrane of E. tarda; test: Inner membrane penetration, PI staining by flow cytometry; type: cell-based, Edwardsiella tarda; conditions: 1× MIC, 5–30 min at 37°C, 1 × 10^8 CFU/mL
Method: Mid-log phase E. tarda cells (1 × 10^8 CFU/mL) were incubated with or without 1× MIC peptides solutions at 37°C for 5, 15, and 30 min, respectively. After washing twice with PBS, bacterial cells were then incubated with 50 μg/mL propidium iodide (PI) for 15 min and analyzed using a FACS Calibur Flow Cytometer (BD, United States) ([Stearns-Kurosawa et al., 2011]).

[3] = test system: murine erythrocytes; type: cell-based, mouse
Method: The hemolysis of peptides was evaluated by determining the amount of hemoglobin that was released from fresh mouse erythrocytes ([Flamm et al., 2019]). The blood cells were washed three times with 10 mM PBS (pH 7.4) and centrifuged for 10 min (1,500 rpm). Erythrocyte solution (8%, v/v) was mixed with peptide solutions (1:1) and incubated for 1 h at 37°C. The mixture was then centrifuged for 5 min (1,500 rpm), and the absorbance of supernatants was measured at 540 nm. Values of 0 and 100% hemolysis were determined in PBS and 0.1% triton X-100, respectively. The hemolysis of peptides was calculated using the following formula: Hemolysis (%) = [(Abs treated sample – Abs negative control)/(Abs positive control – Abs negative control)] × 100.

[4] = test system: S. hyicus 15095; type: cell-based, Staphylococcus hyicus
Method: (§1) The antimicrobial activity of peptides was determined by the microbroth dilution method ([Zhang et al., 2014]). The bacterial strains were incubated in Mueller-Hinton (MH) medium at 28°C or 37°C overnight. Bacteria (1 × 10^5 CFU/mL) were added into 96-well plates, followed by the addition of serial dilutions of peptides (from 0.0625 to 128 μg/mL). The plates were incubated at 37°C for 18–24 h. The minimal inhibitory concentration (MIC) value was determined as the lowest peptide concentration at which no bacterial growth was observed.

[5] = test system: Gram-negative bacteria; test: Geometric mean of MICs and therapeutic index; type: cell-based; conditions: for GM Gram-negative bacteria: geometric mean (GM) of MICs against Gram-negative bacteria; for TI Gram-negative bacteria: therapeutic index (TI), cell selectivity
Method: as §1
(§2) The geometric mean (GM) of MICs of peptides against Gram-negative and Gram-positive bacteria was calculated, and the result was shown in Table 3. […] For Gram-negative bacteria, the TI value of GUON6NH2 (53.33) was very close to N6NH2 (58.18), while for positive bacteria, the TI value of GUON6NH2 (12.8) was slightly higher than that of N6NH2 (12.31), indicating their huge therapeutic potential. For Gram-positive bacteria, DN6NH2 had the highest TI value and the best therapeutic potential.

[6] = test system: Gram-positive bacteria; test: Geometric mean of MICs and therapeutic index; type: cell-based; conditions: for GM Gram-positive bacteria: geometric mean (GM) of MICs against Gram-positive bacteria; for TI Gram-positive bacteria: therapeutic index (TI), cell selectivity
Method: as §1, §2

[7] = test system: Gram-negative and Gram-positive bacteria (ALL); test: Geometric mean of MICs and therapeutic index; type: cell-based; conditions: for GM ALL: geometric mean (GM) of MICs, all strains; for TI ALL: therapeutic index (TI), cell selectivity
Method: as §1, §2

[8] = test system: Escherichia coli CVCC195; type: cell-based
Method: as §1

[9] = test system: Edwardsiella tarda; type: cell-based
Method: as §1

[10] = test system: Salmonella pullorum CVCC1802; type: cell-based
Method: as §1

[11] = test system: Staphylococcus aureus ATCC43300; type: cell-based
Method: as §1

[12] = test system: Staphylococcus hyicus 437-2; type: cell-based
Method: as §1

[13] = test system: Salmonella typhimurium CVCC533; type: cell-based; conditions: murium CVCC533
Method: as §1

[14] = test system: S. typhimurium ATCC14028; type: cell-based, Salmonella typhimurium
Method: as §1

[15] = type: cell-based, Streptococcus enteritidis
Method: as §1

[16] = test system: E. tarda; test: Mouse peritonitis model, survival; type: in vivo; conditions: 1 μmoL/kg i.p. at 1 h postinfection, ICR mice, 5 days
Method: To establish a peritonitis mouse model, six-week-old female ICR mice (five mice/group) were intraperitoneally injected with E. tarda (1 × 10^9 CFU/mL, 0.5 mL). The infected mice were followed by the intraperitoneal injection of N6NH2, GUON6NH2 or norfloxacin (1 μmol/kg of body weight, 0.2 mL) at 1 h postinfection, respectively. Mice injected with only bacteria or PBS were used as negative or blank controls. The survival of mice was recorded daily for 5 days.

[17] = test system: S. aureus ATCC546; type: cell-based, Staphylococcus aureus
Method: as §1

[18] = test system: S. aureus ATCC25923; type: cell-based, Staphylococcus aureus
Method: as §1

[19] = test system: E. tarda; test: Mouse peritonitis model, bacterial counts in peritoneal fluid; type: in vivo; conditions: 1 μmol/kg i.p., peritoneal fluid cells 24 h after treatment
Method: The mice were intraperitoneally infected with E. tarda (1 × 10^9 CFU/mL, 0.5 mL) and then injected with N6NH2 and GUON6NH2 (1 μmol/kg) or PBS (the blank control) in the same way at 1 h after infection. The mice were then killed at 24 h after treatment, and peritoneal fluids were obtained by washing with 5 mL of ice-cold PBS. The total number of E. tarda in the fluids was determined before any further procedures. For intracellular bacteria quantification, the other fraction was centrifuged for 5 min at 4°C (1,000 rpm). The cells were collected, treated with 1,000 μg/mL gentamicin for 30 min at 37°C to kill extracellular bacteria, and washed with ice-cold PBS twice to remove extracellular gentamicin. Subsequently, the cells were lysed and the bacteria were counted as described above for the in vitro experiment ([Kim et al., 2011]).

| Structure (SMILES) | penetration rate (PI-stained cells) [2] | MHC [3] [µg/mL] | MIC [4] [µg/mL] | GM Gram-negative bacteria [5] [µg/mL] | TI Gram-negative bacteria [5] | GM Gram-positive bacteria [6] [µg/mL] | TI Gram-positive bacteria [6] | GM ALL [7] [µg/mL] | TI ALL [7] | MIC [8] [µg/mL] | MIC [9] [µg/mL] | MIC [10] [µg/mL] | MIC [11] [µg/mL] | MIC [12] [µg/mL] | MIC [13] [µg/mL] | MIC [14] [µg/mL] | MIC [15] [µg/mL] | survival rate of mice [16] [%] | MIC [17] [µg/mL] | MIC [18] [µg/mL] | further results |
| --- | --- | --- | --- | --- | --- | --- | --- | --- | --- | --- | --- | --- | --- | --- | --- | --- | --- | --- | --- | --- | --- |
| CC(C)[C@@H]1NC(=O)CNC(=O)[C@H](CC(N)=O)NC(=O)[C@H](CCCNC(=N)N)NC(=O)[C@H](Cc2ccc(O)cc2)NC(=O)[C@H](C(C)C)NC(=O)[C@@H](NC(=O)[C@@H](NC(=O)[C@H](CC(N)=O)NC(=O)[C@H](Cc2c[nH]c3ccccc23)NC(=O)[C@H](C)NC(=O)[C@H](Cc2ccccc2)NC(=O)[C@H](CCCN)N=C(N(C)C)N(C)C)C(C)C)CSSC[C@@H](C(=O)N[C@@H](Cc2c[nH]cn2)C(=O)N[C@@H](CCCNC(=N)N)C(=O)N[C@@H](CCCNC(=N)N)C(=O)N[C@@H](C)C(=O)N[C@@H](CC(N)=O)C(N)=O)NC(=O)[C@H](C(C)C)NC(=O)[C@H](CCCNC(=N)N)NC1=O [GUON6NH2] ({Orn(α-tetramethylguanidino)}-FAWNVCVYRNGVRVCHRRAN-NH2; disulfide 6-15) | 0.78–2.84% | >128 | 4 (≈ 1.52 µM) | 4.8 | 53.33 | 20 | 12.8 | 9.87 | 25.94 | 4 (≈ 1.52 µM) | 8 (≈ 3.04 µM) | 4 (≈ 1.52 µM) | 16 (≈ 6.08 µM) | 32 (≈ 12.2 µM) | 8 (≈ 3.04 µM) | 4 (≈ 1.52 µM) | 2 (≈ 0.76 µM) | 60 | 16 (≈ 6.08 µM) | 32 (≈ 12.2 µM) | PAE, times longer than that of norfloxacin [1]: 1.27 times; cytotoxicity and hemolysis ([3]; red cells of mouse, 1 h): < 1%; reduction of intracellular bacteria [19]: 1.97 Log10 CFU |
| CC(C)[C@@H]1NC(=O)CNC(=O)[C@H](CC(N)=O)NC(=O)[C@H](CCCNC(=N)N)NC(=O)[C@H](Cc2ccc(O)cc2)NC(=O)[C@H](C(C)C)NC(=O)[C@@H](NC(=O)[C@@H](NC(=O)[C@H](CC(N)=O)NC(=O)[C@H](Cc2c[nH]c3ccccc23)NC(=O)[C@H](C)NC(=O)[C@H](Cc2ccccc2)NC(=O)CN)C(C)C)CSSC[C@@H](C(=O)N[C@@H](Cc2cnc[nH]2)C(=O)N[C@@H](CCCNC(=N)N)C(=O)N[C@@H](CCCNC(=N)N)C(=O)N[C@@H](C)C(=O)N[C@@H](CC(N)=O)C(N)=O)NC(=O)[C@H](C(C)C)NC(=O)[C@H](CCCNC(=N)N)NC1=O [N6NH2] | 0.99–1.71% | >128 | 8 (≈ 3.23 µM) | 4.4 | 58.18 | 20.8 | 12.31 | 9.87 | 25.94 | 4 (≈ 1.62 µM) | 8 (≈ 3.23 µM) | 4 (≈ 1.62 µM) | 16 (≈ 6.46 µM) | 32 (≈ 12.9 µM) | 4 (≈ 1.62 µM) | 4 (≈ 1.62 µM) | 2 (≈ 0.808 µM) | 80 | 16 (≈ 6.46 µM) | 32 (≈ 12.9 µM) | reduction of intracellular bacteria [19]: 1.54 Log10 CFU |
